Patent publication US9174952B2, “Substituted 3-thiazoloamino-propionic acid derivatives and their use as pharmaceuticals” (SANOFI, priority 2011, dated 2015)

Molecular target: T1, Recombinant human cathepsin A (Homo sapiens, UniProt P10619)
T1 construct: Recombinant human cathepsin A (residues 29-480, with a C-terminal 10-His tag); 10-His (C); purchased R&D Systems 1049-SE
T1 sequence (P10619 29-326 limits assumed): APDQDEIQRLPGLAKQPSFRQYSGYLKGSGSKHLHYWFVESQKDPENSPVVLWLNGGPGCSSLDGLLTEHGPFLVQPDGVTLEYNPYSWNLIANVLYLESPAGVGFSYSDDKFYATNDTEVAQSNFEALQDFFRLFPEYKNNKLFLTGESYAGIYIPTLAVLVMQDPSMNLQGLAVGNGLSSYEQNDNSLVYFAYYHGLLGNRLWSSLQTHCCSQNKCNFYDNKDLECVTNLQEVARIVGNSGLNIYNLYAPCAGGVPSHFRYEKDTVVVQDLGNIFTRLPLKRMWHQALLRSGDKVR
T1 sequence (P10619 327-480 limits assumed): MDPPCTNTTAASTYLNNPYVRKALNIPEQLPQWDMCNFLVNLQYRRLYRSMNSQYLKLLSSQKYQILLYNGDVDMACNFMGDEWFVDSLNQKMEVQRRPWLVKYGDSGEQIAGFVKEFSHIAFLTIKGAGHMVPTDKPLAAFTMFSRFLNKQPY
Assay: Cathepsin A inhibitory activity
Format: biochemical
Settings: activated recombinant human cathepsin A 833 ng/ml, Bodipy FL-labeled bradykinin substrate 2 μM, pH 5.5, room temperature
Method: a) Cathepsin A Inhibitory Activity
Recombinant human cathepsin A (residues 29-480, with a C-terminal 10-His tag; R&D Systems, #1049-SE) was proteolytically activated with recombinant human cathepsin L (R&D Systems, #952-CY). Briefly, cathepsin A was incubated at 10 μg/ml with cathepsin L at 1 μg/ml in activation buffer (25 mM 2-(morpholin-4-yl)-ethanesulfonic acid (MES), pH 6.0, containing 5 mM dithiothreitol (DTT)) for 15 min at 37° C. Cathepsin L activity was then stopped by the addition of the cysteine protease inhibitor E-64 (N-(trans-epoxysuccinyl)-L-leucine-4-guanidinobutylamide; Sigma-Aldrich, # E3132; dissolved in activation buffer/DMSO) to a final concentration of 10 μM.
The activated cathepsin A was diluted in assay buffer (25 mM MES, pH 5.5, containing 5 mM DTT) and mixed with the test compound (dissolved in assay buffer containing (v/v) 3% DMSO) or, in the control experiments, with the vehicle in a multiple assay plate. After incubation for 15 min at room temperature, as substrate then bradykinin carrying an N-terminal ®Bodipy FL (4,4-difluoro-5,7-dimethyl-4-bora-3a,4a-diaza-s-indacene-3-propionyl) label (JPT Peptide Technologies GmbH; dissolved in assay buffer) was added to the mixture. The final concentration of cathepsin A was 833 ng/ml and the final concentration of labeled bradykinin 2 μM. After incubation for 15 min at room temperature the reaction was stopped by the addition of stop buffer (130 mM 2-(4-(2-hydroxy-ethyl)-piperazin-1-yl)-ethanesulfonic acid, pH 7.4, containing (v/v) 0.013% ®Triton X-100, 0.13% Coating Reagent 3 (Caliper Life Sciences), 6.5% DMSO and 20 μM ebelactone B (Sigma, # E0886)).
Uncleaved substrate and product were then separated by a microfluidic capillary electrophoresis on a LabChip® 3000 Drug Discovery System (12-Sipper-Chip; Caliper Life Sciences) and quantified by determination of the respective peak areas. Substrate turnover was calculated by dividing product peak area by the sum of substrate and product peak areas, and the enzyme activity and the inhibitory effect of the test compound thus quantified. From the percentage of inhibition of cathepsin A activity observed with the test compound at several concentrations, the inhibitory concentration IC50, i.e. the concentration which effects 50% inhibition of enzyme activity was, calculated.

Structure (SMILES)	IC50 [nM]
O=C(O)C[C@@H](Cc1ccccc1)NC(=O)c1nc(-c2ccccc2)cs1 [Example 1, (R)-4-Phenyl-3-[(4-phenyl-thiazole-2-carbonyl)-amino]-butyric acid]	1710
O=C(O)CC(NC(=O)c1csc(-c2ccccc2)n1)c1ccc(-c2ccc(F)cc2)cc1 (centres unmarked) [Example 2, 3-(4′-Fluoro-biphenyl-4-yl)-3-[(2-phenyl-thiazole-4-carbonyl)-amino]-propionic acid]	> 10000
Cc1cccc([C@H](CC(=O)O)NC(=O)c2nc(-c3ccccc3)cs2)c1 [Example 3, (S)-3-[(4-Phenyl-thiazole-2-carbonyl)-amino]-3-m-tolyl-propionic acid]	315
C[C@@](CC(=O)O)(NC(=O)c1nc(-c2ccccc2)cs1)c1ccccc1 [Example 4, (S)-3-Phenyl-3-[(4-phenyl-thiazole-2-carbonyl)-amino]-butyric acid]	> 10000
COc1ccc(-c2nc(C(=O)N[C@@H](CC(=O)O)c3ccccc3C)cs2)cc1 [Example 5, (S)-3-{[2-(4-Methoxy-phenyl)-thiazole-4-carbonyl]-amino}-3-o-tolyl-propionic acid]	368
Cc1cc(C)n(-c2nc(C(=O)N[C@@H](CC(=O)O)c3ccccc3C)cs2)n1 [Example 6, (S)-3-{[2-(3,5-Dimethyl-pyrazol-1-yl)-thiazole-4-carbonyl]-amino}-3-o-tolyl-propionic acid]	> 10000
Cc1ccccc1[C@H](CC(=O)O)NC(=O)c1csc(-c2ccncc2)n1 [Example 7, (S)-3-[(2-Pyridin-4-yl-thiazole-4-carbonyl)-amino]-3-o-tolyl-propionic acid]	805
Cc1ccccc1[C@H](CC(=O)O)NC(=O)c1csc(-c2cnccn2)n1 [Example 8, (S)-3-[(2-Pyrazin-2-yl-thiazole-4-carbonyl)-amino]-3-o-tolyl-propionic acid]	2630
Cc1cc(C(F)(F)F)n(-c2nc(C(=O)N[C@@H](CC(=O)O)c3ccccc3C)cs2)n1 [Example 9, (S)-3-{[2-(3-Methyl-5-trifluoromethyl-pyrazol-1-yl)-thiazole-4-carbonyl]-amino}-3-o-tolyl-propionic acid]	3590
Cc1ccc(-c2nc(C(=O)N[C@@H](CC(=O)O)c3ccccc3C)cs2)cc1 [Example 10, (S)-3-o-Tolyl-3-[(2-p-tolyl-thiazole-4-carbonyl)-amino]-propionic acid]	187
Cc1ccc([C@H](CC(=O)O)NC(=O)c2nc(-c3ccccc3)cs2)cc1 [Example 11, (S)-3-[(4-Phenyl-thiazole-2-carbonyl)-amino]-3-p-tolyl-propionic acid]	404
Cc1ccccc1-c1nc(C(=O)N[C@@H](CC(=O)O)c2cccc(Cl)c2Cl)cs1 [Example 12, (S)-3-(2,3-Dichloro-phenyl)-3-[(2-o-tolyl-thiazole-4-carbonyl)-amino]-propionic acid]	85
O=C(O)C[C@H](NC(=O)c1csc(-c2ccccc2)n1)c1cccc(Cl)c1Cl [Example 13, (S)-3-(2,3-Dichloro-phenyl)-3-[(2-phenyl-thiazole-4-carbonyl)-amino]-propionic acid]	176
O=C(O)C[C@H](NC(=O)c1csc(-c2cccc(Cl)c2Cl)n1)c1cccc(Cl)c1Cl [Example 14, (S)-3-(2,3-Dichloro-phenyl)-3-{[2-(2,3-dichloro-phenyl)-thiazole-4-carbonyl]-amino}-propionic acid]	159
O=C(O)C[C@H](NC(=O)c1csc(-c2ccccc2F)n1)c1cccc(Cl)c1Cl [Example 15, (S)-3-(2,3-Dichloro-phenyl)-3-{[2-(2-fluoro-phenyl)-thiazole-4-carbonyl]-amino}-propionic acid]	209
O=C(O)C[C@H](NC(=O)c1csc(-c2ccc(C(F)(F)F)cc2)n1)c1cccc(Cl)c1Cl [Example 16, (S)-3-(2,3-Dichloro-phenyl)-3-{[2-(4-trifluoromethyl-phenyl)-thiazole-4-carbonyl]-amino}-propionic acid]	3020
COc1cccc([C@H](CC(=O)O)NC(=O)c2csc(-c3ccccc3C)n2)c1OC [Example 17, (S)-3-(2,3-Dimethoxy-phenyl)-3-[(2-o-tolyl-thiazole-4-carbonyl)-amino]-propionic acid]	242
COc1cccc([C@H](CC(=O)O)NC(=O)c2csc(-c3ccccc3)n2)c1OC [Example 18, (S)-3-(2,3-Dimethoxy-phenyl)-3-[(2-phenyl-thiazole-4-carbonyl)-amino]-propionic acid]	498
COc1cccc([C@H](CC(=O)O)NC(=O)c2csc(-c3ccccc3F)n2)c1OC [Example 19, (S)-3-(2,3-Dimethoxy-phenyl)-3-{[2-(2-fluoro-phenyl)-thiazole-4-carbonyl]-amino}-propionic acid]	875
COc1cccc([C@H](CC(=O)O)NC(=O)c2csc(-c3ccc(C(F)(F)F)cc3)n2)c1OC [Example 20, (S)-3-(2,3-Dimethoxy-phenyl)-3-{[2-(4-trifluoromethyl-phenyl)-thiazole-4-carbonyl]-amino}-propionic acid]	6340
Cc1ccccc1-c1nc(C(=O)N[C@@H](CC(=O)O)c2ccc(Cl)cc2Cl)cs1 [Example 21, (S)-3-(2,4-Dichloro-phenyl)-3-[(2-o-tolyl-thiazole-4-carbonyl)-amino]-propionic acid]	886
O=C(O)C[C@H](NC(=O)c1csc(-c2ccccc2)n1)c1ccc(Cl)cc1Cl [Example 22, (S)-3-(2,4-Dichloro-phenyl)-3-[(2-phenyl-thiazole-4-carbonyl)-amino]-propionic acid]	544
O=C(O)C[C@H](NC(=O)c1csc(-c2cccc(Cl)c2Cl)n1)c1ccc(Cl)cc1Cl [Example 23, (S)-3-(2,4-Dichloro-phenyl)-3-{[2-(2,3-dichloro-phenyl)-thiazole-4-carbonyl]-amino}-propionic acid]	555
O=C(O)C[C@H](NC(=O)c1csc(-c2ccccc2F)n1)c1ccc(Cl)cc1Cl [Example 24, (S)-3-(2,4-Dichloro-phenyl)-3-{[2-(2-fluoro-phenyl)-thiazole-4-carbonyl]-amino}-propionic acid]	1070
O=C(O)C[C@H](NC(=O)c1csc(-c2ccc(C(F)(F)F)cc2)n1)c1ccc(Cl)cc1Cl [Example 25, (S)-3-(2,4-Dichloro-phenyl)-3-{[2-(4-trifluoromethyl-phenyl)-thiazole-4-carbonyl]-amino}-propionic acid]	6370
Cc1ccccc1-c1nc(C(=O)N[C@@H](CC(=O)O)c2ccccc2Cl)cs1 [Example 26, (S)-3-(2-Chloro-phenyl)-3-[(2-o-tolyl-thiazole-4-carbonyl)-amino]-propionic acid]	149
O=C(O)C[C@H](NC(=O)c1csc(-c2ccccc2)n1)c1ccccc1Cl [Example 27, (S)-3-(2-Chloro-phenyl)-3-[(2-phenyl-thiazole-4-carbonyl)-amino]-propionic acid]	217
O=C(O)C[C@H](NC(=O)c1csc(-c2cccc(Cl)c2Cl)n1)c1ccccc1Cl [Example 28, (S)-3-(2-Chloro-phenyl)-3-{[2-(2,3-dichloro-phenyl)-thiazole-4-carbonyl]-amino}-propionic acid]	282
O=C(O)C[C@H](NC(=O)c1csc(-c2ccccc2Cl)n1)c1ccccc1Cl [Example 29, (S)-3-(2-Chloro-phenyl)-3-{[2-(2-chloro-phenyl)-thiazole-4-carbonyl]-amino}-propionic acid]	100
